The source of these data is ChEMBL document CHEMBL3882724 (2013).

In the first series the target is T1, CYP21 (steroid 21-hydroxylase) (Homo sapiens, UniProt P08686).
T1 sequence (P08686 whole entry): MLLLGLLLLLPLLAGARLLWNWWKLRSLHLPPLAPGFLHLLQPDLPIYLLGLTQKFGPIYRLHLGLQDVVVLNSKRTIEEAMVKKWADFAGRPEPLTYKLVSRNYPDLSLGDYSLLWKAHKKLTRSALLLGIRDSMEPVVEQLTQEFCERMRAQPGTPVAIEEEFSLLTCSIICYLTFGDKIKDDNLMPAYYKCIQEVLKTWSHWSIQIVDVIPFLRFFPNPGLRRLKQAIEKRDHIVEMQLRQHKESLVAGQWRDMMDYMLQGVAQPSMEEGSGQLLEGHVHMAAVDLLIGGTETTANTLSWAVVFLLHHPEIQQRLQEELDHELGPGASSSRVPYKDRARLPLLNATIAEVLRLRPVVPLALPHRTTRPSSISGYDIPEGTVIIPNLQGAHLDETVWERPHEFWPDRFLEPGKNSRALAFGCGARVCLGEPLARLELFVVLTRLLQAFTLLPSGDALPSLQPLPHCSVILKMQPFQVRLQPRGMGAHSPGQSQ
Put plainly: Inhibition of human CYP21 transfected in HEK293 cells assessed as decrease in conversion of progesterone to 11-deoxycorticosterone preincubated for 5 hrs followed by progesterone addition measured after 20 hrs by ELISA. In kind it is cell-based. More on the design: concentration or dose not given beside the values. The settings on record: HEK293 cells transfected with human CYP21, probe progesterone.
For orientation: inhibition means the share of the control response that was lost under treatment. For `Cc1cncc(C2=CC[C@H]3[C@@H]4CC=C5C[C@H](NC(=O)C6CC6)CC[C@]5(C)[C@H]4CC[C@]23C)c1`, the inhibition at 20 h was no less than 50%. Still for that read-out and setting: for `C[C@]12CC[C@H]3[C@@H](CCC4=CC(=O)NCC[C@@]43C)C1=CC=C2c1cncc(C(F)F)c1` the value was no less than 50%; for `C[C@]12CC[C@@H](NC(=O)C3CCC3)CC1=CC[C@@H]1[C@@H]2CC[C@]2(C)C(c3cccnc3)=CC[C@@H]12`, no less than 50%; for `CC1C(=O)CC[C@@]2(C)C1CC[C@@H]1[C@@H]2CC[C@]2(C)C(c3cccnc3)=CC[C@@H]12` (some centres not stated), 10 to 50%. The same measure, in the same setting: in the case of `CC(=O)O[C@H]1CC[C@@]2(C)C(CC[C@H]3C4=CC=C(c5cnccc5C)[C@@]4(C)CC[C@@H]32)C1` (some centres not stated) it was 10 to 50%.

Regarding `Cc1ccncc1C1=CC=C2[C@@H]3CC[C@H]4CNC(=O)CC[C@]4(C)[C@H]3CC[C@]12C`, the inhibition at 20 h was in the range of 10 to 50%.

For the compound `Cc1ccncc1C1=CC=C2[C@@H]3CCC4CC(=O)CC[C@]4(C)[C@H]3CC[C@]12C` (some centres not stated), the inhibition at 20 h lay within 10 to 50%. Still for that read-out and setting: in the case of `C[C@]12CCC(=O)C=C1CC[C@@H]1[C@@H]2CC[C@]2(C)C(c3cncc(C(F)F)c3)=CC[C@@H]12` it was 10 to 50%. Still for that read-out and setting: in the case of `C[C@]12CCNC(=O)CC1CC[C@@H]1[C@@H]2CC[C@]2(C)C(c3cncc(F)c3)=CC[C@@H]12` (some centres not stated) it was 10 to 50%; in that of `C[C@]1(O)CC[C@@]2(C)C(=CC[C@@H]3[C@@H]2CC[C@]2(C)C(c4cccnc4)=CC[C@@H]32)C1`, no less than 50%; in that of `CCNC(=S)N[C@@H]1CC[C@@]2(C)C(=CC[C@@H]3[C@@H]2CC[C@]2(C)C(c4cccnc4)=CC[C@@H]32)C1`, 10 to 50%. On the same count and under the same terms, for `C[C@]12CC/C(=N\O)C=C1C(F)C[C@@H]1[C@@H]2CC[C@]2(C)C(c3cccnc3)=CC[C@@H]12` (some centres not stated) the value was 10 to 50%. Take `C[C@]12CC[C@H]3[C@@H](CC(Nc4nccs4)C45CC4CC[C@]35C)[C@@H]1CC=C2c1cccnc1` (some centres not stated): the inhibition at 20 h fell in the range of 10 to 50%. Consider `CC1CC2[C@H](CC[C@]3(C)C(c4cccnc4)=CC[C@@H]23)[C@@]2(C)CCC(C)(O)C=C12` (some centres not stated), for which the inhibition at 20 h lay in the range of 10 to 50%.

With `C[C@]12CCC(=O)C=C1C(c1ccccc1)C[C@@H]1[C@@H]2CC[C@]2(C)C(c3cccnc3)=CC[C@@H]12` (some centres not stated), the inhibition at 20 h was less than 10%. The same measure, in the same setting: in the case of `C[C@@]1(O)CC[C@@]2(C)C(=CC[C@@H]3[C@@H]2CC[C@]2(C)C(c4cccnc4)=CC[C@@H]32)C1` it was no less than 50%; in that of `Cc1cncc(C2=CC=C3[C@@H]4CCC5CNC(=O)CC[C@]5(C)[C@H]4CC[C@]23C)c1` (some centres not stated), 10 to 50%; in that of `CCc1cncc(C2=CC[C@H]3[C@@H]4CC[C@H]5C[C@@H](OC)CC[C@]5(C)[C@H]4CC[C@]23C)c1`, 10 to 50%. Same read-out and setting: in the case of `CC(C)(C)C(=O)N[C@@H]1CC[C@@]2(C)C(CC[C@@H]3[C@@H]2CC[C@]2(C)C(c4cccnc4)=CC[C@@H]32)C1` (some centres not stated) it was 10 to 50%; in that of `CCc1ccncc1C1=CC=C2[C@@H]3CCC4CNC(=O)CC[C@]4(C)[C@H]3CC[C@]12C` (some centres not stated), 10 to 50%; in that of `C[C@]12CC[C@@H](NS(=O)(=O)C3CC3)CC1=CC[C@@H]1[C@@H]2CC[C@]2(C)C(c3cccnc3)=CC[C@@H]12`, 10 to 50%. The same measure, in the same setting: in the case of `C[C@@]1(O)CC[C@@]2(C)C(CCC3C4=CC=C(c5cccnc5)[C@@]4(C)CC[C@@H]32)C1` (single isomer, unassigned) it was less than 10%; in that of `CCc1ccncc1C1=CC[C@H]2[C@@H]3CC[C@H]4CC(=O)NCC[C@]4(C)[C@H]3CC[C@]12C`, 10 to 50%; in that of `CO[C@H]1CC[C@@]2(C)[C@@H](CC[C@@H]3[C@@H]2CC[C@]2(C)C(c4cnccc4C)=CC[C@@H]32)C1`, 10 to 50%. In the case of `CCc1ccncc1C1=CC=C2[C@@H]3CCC4CC(=O)NCC[C@]4(C)[C@H]3CC[C@]12C` (some centres not stated), the inhibition at 20 h fell in the range of 10 to 50%.

As to `CC1C[C@@]2(C)C(CC[C@@H]3[C@@H]2CC[C@]2(C)C(c4cccnc4)=CC[C@@H]32)C(C)C1O` (some centres not stated), the inhibition at 20 h was 10 to 50%.

In the case of `C[C@@]1(O)CC[C@@]2(C)C(CC[C@@H]3[C@@H]2CC[C@]2(C)C(c4cncc(Cl)c4)=CC[C@@H]32)C1` (some centres not stated), the inhibition at 20 h lay within 10 to 50%.

For `C[C@H]1C2CC[C@@H]3[C@H](CC[C@]4(C)C(c5cncc(C(F)F)c5)=CC[C@@H]34)[C@@]2(C)CC[C@@H]1O` (some centres not stated), the inhibition at 20 h was 10 to 50%. Same read-out and setting: in the case of `CCC(=O)O[C@H]1CC[C@@]2(C)C(=CC[C@H]3C4=CC=C(c5cccnc5)[C@@]4(C)CC[C@@H]32)C1` it was 10 to 50%. On to `CC(=O)N(C)[C@H]1CC[C@@]2(C)C(CC[C@@H]3[C@@H]2CC[C@]2(C)C(c4cncc(C)c4)=CC[C@@H]32)C1` (some centres not stated), for which the inhibition at 20 h lay in the range of 10 to 50%. Regarding `CCc1ccncc1C1=CC=C2[C@@H]3CCC4CC(=O)CC[C@]4(C)[C@H]3CC[C@]12C` (some centres not stated), the inhibition at 20 h was 10 to 50%. For the compound `CN1CCC(C(=O)O[C@H]2CC[C@@]3(C)C(=CC[C@H]4C5=CC=C(c6cccnc6)[C@@]5(C)CC[C@@H]43)C2)CC1`, the inhibition at 20 h was 10 to 50%. Consider `COC(=O)c1cncn1C1=CC[C@H]2[C@@H]3CC=C4C[C@@H](O)CC[C@]4(C)[C@H]3CC[C@]12C`, for which the inhibition at 20 h was 10 to 50%. The same measure, in the same setting: for `CC1C[C@@H]2[C@H](CC[C@]3(C)C(c4cccnc4)=CC[C@@H]23)[C@@]2(C)C=C/C(=N\O)C=C12` (some centres not stated) the value was 10 to 50%. Same read-out and setting: for `C[C@]12CC(O)CC1CC[C@@H]1[C@@H]2CC[C@]2(C)C(c3cncc(Cl)c3)=CC[C@@H]12` (some centres not stated) the value was 10 to 50%. Still for that read-out and setting: for `C[C@]12CCNC(=O)CC1CCC1C2CC[C@]2(C)C(c3cncc(C(F)F)c3)=CCC12` (some centres not stated) the value was no less than 50%; for `C#CC1(O)CC[C@@]2(C)C(CC[C@@H]3[C@@H]2CC[C@]2(C)C(c4cccnc4)=CC[C@@H]32)C1` (single isomer, unassigned), 10 to 50%. In the case of `CC1C(O)CC[C@@]2(C)C1CC[C@@H]1[C@@H]2CC[C@]2(C)C(c3cncc(F)c3)=CC[C@@H]12` (some centres not stated), the inhibition at 20 h is less than 10%.

Turning to `CC1C[C@H]2C3=CC=C(c4ccc(F)nc4)[C@@]3(C)CC[C@@H]2[C@@]2(C)CCNC(=O)C=C12` (some centres not stated), the inhibition at 20 h is 10 to 50%.

The target of another series is T2, Steroid 17-alpha-hydroxylase/17,20 lyase (Homo sapiens, UniProt P05093).
T2 sequence (P05093 whole entry): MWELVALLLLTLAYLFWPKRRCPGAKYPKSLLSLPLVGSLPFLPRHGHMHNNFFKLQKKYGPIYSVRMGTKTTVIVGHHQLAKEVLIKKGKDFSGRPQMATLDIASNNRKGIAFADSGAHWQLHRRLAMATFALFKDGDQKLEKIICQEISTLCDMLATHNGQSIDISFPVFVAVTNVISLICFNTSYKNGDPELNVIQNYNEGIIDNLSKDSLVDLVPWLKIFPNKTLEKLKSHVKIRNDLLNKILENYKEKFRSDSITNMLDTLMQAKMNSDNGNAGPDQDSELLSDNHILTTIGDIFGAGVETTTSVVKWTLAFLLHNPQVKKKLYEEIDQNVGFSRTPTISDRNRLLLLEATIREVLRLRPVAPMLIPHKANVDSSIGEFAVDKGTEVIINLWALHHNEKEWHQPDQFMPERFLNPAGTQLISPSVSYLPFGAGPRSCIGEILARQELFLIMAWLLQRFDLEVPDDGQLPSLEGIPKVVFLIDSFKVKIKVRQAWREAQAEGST
Put plainly: Inhibition of CYP17 in human testicular microsomes using 17alpha-hydroxypregnenolone as substrate assessed as decrease in DHEA levels after 90 mins by ELISA. Also noted: species or system Testis.
Settings: not given
On the technique in general: In an ELISA, binding on a coated surface is turned into a signal by an enzyme label.
By IC50 is commonly meant the concentration needed to halve the response being measured. With `Cc1cncc(C2=CC[C@H]3[C@@H]4CC=C5C[C@H](NC(=O)C6CC6)CC[C@]5(C)[C@H]4CC[C@]23C)c1`, the IC50 is no more than 11 nM. On to `C[C@]12CC[C@H]3[C@@H](CCC4=CC(=O)NCC[C@@]43C)C1=CC=C2c1cncc(C(F)F)c1`, for which the IC50 is no more than 11 nM. On the same count and under the same terms, for `CC(=O)O[C@H]1CC[C@@]2(C)C(=CC[C@H]3C4=CC=C(n5ccnc5)[C@@]4(C)CC[C@@H]32)C1` the value was no more than 11 nM. On the same count and under the same terms, for `C[C@]12CC[C@@H](NC(=O)C3CCC3)CC1=CC[C@@H]1[C@@H]2CC[C@]2(C)C(c3cccnc3)=CC[C@@H]12` the value was no more than 11 nM; for `CC1=C2CC[C@H]3C4=CC=C(c5cccnc5)[C@@]4(C)CC[C@@H]3[C@@]2(C)CCC1O` (some centres not stated), no more than 11 nM; for `C[C@]12CCC(F)(F)CC1CC[C@@H]1[C@@H]2CC[C@]2(C)C(c3cccnc3)=CC[C@@H]12` (some centres not stated), no more than 11 nM. Still for that read-out and setting: for `C[C@]12CC[C@H]3[C@@H](CCC4CC(F)(F)CC[C@@]43C)C1=CC=C2c1cccnc1` (some centres not stated) the value was no more than 11 nM; for `C[C@]12CC[C@H]3[C@@H](CCC4=CC(=O)CC[C@@]43C)C1=CC=C2c1cncc(N)c1`, no more than 11 nM.
